The subject of assay [1] is 3′-methylene blue- and 5′-thiol-modified oligonucleotide with affinity toward vancomycin (aptamer probe) (DNA, aptamer) CGAGGGTACCGCAATAGTACTTATTGTTCGCCTATTGTGGGTCGG
Nature of the assay: electrochemical aptamer-based sensor, SWV titration, planar gold electrode. The conditions noted are these: Na+ (0.5 wt % NaCl); artificial sweat (0.1 wt % urea, 0.1 wt % lactic acid), pH 6.5, room temperature; apparent.

For assay [2] the test system is unchanged. Nature of the assay: electrochemical aptamer-based sensor, SWV titration, gold-coated microstructured electrode (MSE). The conditions noted are these: Na+ (0.5 wt % NaCl); artificial sweat (0.1 wt % urea, 0.1 wt % lactic acid), pH 6.5, room temperature; apparent.

On to `CN[C@H](CC(C)C)C(=O)N[C@H]1C(=O)N[C@@H](CC(N)=O)C(=O)N[C@H]2C(=O)N[C@H]3C(=O)N[C@H](C(=O)N[C@H](C(=O)O)c4cc(O)cc(O)c4-c4cc3ccc4O)[C@H](O)c3ccc(c(Cl)c3)Oc3cc2cc(c3O[C@@H]2O[C@H](CO)[C@@H](O)[C@H](O)[C@H]2O[C@H]2C[C@](C)(N)[C@H](O)[C@H](C)O2)Oc2ccc(cc2Cl)[C@H]1O`, for which the values for the KD in assay [1] and in assay [2] were 26.3 ± 3.3 µM and 46.6 ± 4.1 µM, respectively.
